Test results from publication PMC6572064, “Discovery of 2-(1-(3-(4-Chloroxyphenyl)-3-oxo- propyl)pyrrolidine-3-yl)-1H-benzo[d]imidazole-4-carboxamide: A Potent Poly(ADP-ribose) Polymerase (PARP) Inhibitor for Treatment of Cancer” (Molecules, 2019).
pIC50: −log10 of the molar value. Like-named read-outs stand apart in the source and are kept apart here.

Key:
[1] = molecular target: T1, PARP-1 (Homo sapiens, UniProt P09874); experiment: PARP-1 inhibition assay (PARP-1 Chemiluminescent Assay Kit, BPS Bioscience); type: biochemical
T1 construct: purchased BPS Bioscience 80569
T1 sequence (P09874 whole entry): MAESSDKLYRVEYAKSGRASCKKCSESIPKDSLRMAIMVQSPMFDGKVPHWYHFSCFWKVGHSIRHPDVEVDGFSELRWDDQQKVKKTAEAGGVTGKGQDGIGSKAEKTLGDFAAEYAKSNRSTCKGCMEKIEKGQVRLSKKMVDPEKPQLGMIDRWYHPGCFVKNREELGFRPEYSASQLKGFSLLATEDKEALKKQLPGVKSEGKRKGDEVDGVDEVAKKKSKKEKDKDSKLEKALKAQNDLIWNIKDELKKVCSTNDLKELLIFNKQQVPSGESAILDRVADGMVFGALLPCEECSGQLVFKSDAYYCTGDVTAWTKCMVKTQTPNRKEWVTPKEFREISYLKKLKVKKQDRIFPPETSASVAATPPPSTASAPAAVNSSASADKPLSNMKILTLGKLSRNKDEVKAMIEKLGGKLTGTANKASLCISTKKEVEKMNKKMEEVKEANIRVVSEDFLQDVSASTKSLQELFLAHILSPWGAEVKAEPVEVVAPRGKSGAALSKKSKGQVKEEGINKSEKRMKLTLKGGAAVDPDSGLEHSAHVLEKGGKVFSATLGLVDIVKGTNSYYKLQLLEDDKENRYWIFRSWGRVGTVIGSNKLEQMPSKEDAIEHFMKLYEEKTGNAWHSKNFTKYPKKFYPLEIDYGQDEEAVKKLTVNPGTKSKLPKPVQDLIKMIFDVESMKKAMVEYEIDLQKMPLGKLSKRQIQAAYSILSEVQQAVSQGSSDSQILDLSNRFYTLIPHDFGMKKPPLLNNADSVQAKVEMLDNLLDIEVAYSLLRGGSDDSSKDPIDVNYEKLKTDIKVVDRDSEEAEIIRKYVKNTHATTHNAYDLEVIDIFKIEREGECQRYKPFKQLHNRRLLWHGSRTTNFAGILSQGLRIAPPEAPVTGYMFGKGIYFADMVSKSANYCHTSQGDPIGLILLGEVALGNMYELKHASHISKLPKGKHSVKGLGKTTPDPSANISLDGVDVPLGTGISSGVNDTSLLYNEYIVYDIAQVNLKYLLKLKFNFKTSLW
Method: (§1) The PARP-1 and PARP-2 inhibition assays were performed in outsourcing, by a CRO company, Shanghai Medicilon Inc. (Shanghai, China). […] Briefly, PARP-1 or PARP-2 biotinylated substrate was incubated with compounds or solvent control at varying concentrations and an assay buffer containing the PARP-1 or PARP-2 enzyme.

[2] = molecular target: T2, PARP-2 (Homo sapiens, UniProt Q9UGN5); experiment: PARP-2 inhibition assay (PARP-2 Chemiluminescent Assay Kit, BPS Bioscience); type: biochemical
T2 construct: purchased BPS Bioscience 80552
T2 sequence (Q9UGN5 whole entry): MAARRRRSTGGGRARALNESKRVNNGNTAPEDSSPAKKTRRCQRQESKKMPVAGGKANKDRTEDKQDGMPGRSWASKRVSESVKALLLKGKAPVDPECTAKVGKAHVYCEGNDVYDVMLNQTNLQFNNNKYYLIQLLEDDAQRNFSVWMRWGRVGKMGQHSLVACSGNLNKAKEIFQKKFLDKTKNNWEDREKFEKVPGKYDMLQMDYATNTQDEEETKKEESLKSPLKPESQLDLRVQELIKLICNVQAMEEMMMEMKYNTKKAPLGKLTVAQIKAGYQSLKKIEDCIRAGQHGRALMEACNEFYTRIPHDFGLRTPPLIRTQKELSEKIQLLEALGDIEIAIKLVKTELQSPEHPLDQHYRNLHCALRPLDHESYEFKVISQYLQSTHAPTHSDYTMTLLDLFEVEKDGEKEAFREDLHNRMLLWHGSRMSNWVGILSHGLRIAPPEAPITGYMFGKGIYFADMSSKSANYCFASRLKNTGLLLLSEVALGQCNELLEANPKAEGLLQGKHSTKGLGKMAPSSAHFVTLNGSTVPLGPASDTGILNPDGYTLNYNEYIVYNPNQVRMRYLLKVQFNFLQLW
Method: as §1

[3] = test system: MDA-MB-436 (a BRCA-1-mutated breast cancer cell line); experiment: Cell proliferation assay, three-day, CellTiter-Glo, MDA-MB-436; type: cell-based; conditions: Homo sapiens; for inhibition at 0.00508 µM: MDA-MB-436, MDA-MB-436, Conc. 0.00508 uM; for inhibition at 0.0152 µM: MDA-MB-436, MDA-MB-436, Conc. 0.0152 uM; for inhibition at 0.0457 µM: MDA-MB-436, MDA-MB-436, Conc. 0.0457 uM; for inhibition at 0.41 µM: MDA-MB-436, MDA-MB-436, Conc. 0.41 uM; for inhibition at 1.23 µM: MDA-MB-436, MDA-MB-436, Conc. 1.23 uM; for inhibition at 3.7 µM: MDA-MB-436, MDA-MB-436, Conc. 3.70 uM; for inhibition at 11.11 µM: MDA-MB-436, MDA-MB-436, Conc. 11.11 uM; for inhibition at 33.33 µM: MDA-MB-436, MDA-MB-436, Conc. 33.33 uM; for inhibition at 100 µM: MDA-MB-436, MDA-MB-436, Conc. 100.00 uM; for pIC50: MDA-MB-436, 72 h, CellTiter-Glo, read-out: MDA-MB-436 IC50
Outline: (§2)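 Luminescent ATP read-out (CellTiter-Glo, 60 min at room temperature) quantified viability after a 72 h compound exposure at 37 °C, 5% CO2. Compounds, diluted from DMSO stocks into growth medium, were added to cells plated the previous day.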

[4] = test system: CAPAN-1 (a BRCA-2-mutated pancreatic cancer cell line); experiment: Cell proliferation assay, three-day, CellTiter-Glo, CAPAN-1; type: cell-based; conditions: for pIC50 / inhibition at 0.00508 µM / inhibition at 0.0152 µM / inhibition at 0.0457 µM / inhibition at […] / inhibition at 0.41 µM / inhibition at 1.23 µM / inhibition at 3.7 µM / inhibition at 11.11 µM / inhibition at 33.33 µM / inhibition at 100 µM: Homo sapiens; for pIC50: CAPAN-1, read-out: CAPAN-1 IC50; for inhibition at 0.00508 µM: CAPAN-1, Conc. 0.00508 uM; for inhibition at 0.0152 µM: CAPAN-1, Conc. 0.0152 uM; for inhibition at 0.0457 µM: CAPAN-1, Conc. 0.0457 uM; for inhibition at […]: CAPAN-1, Conc. 0.14 uM; for inhibition at 0.41 µM: CAPAN-1, Conc. 0.41 uM; for inhibition at 1.23 µM: CAPAN-1, Conc. 1.23 uM; for inhibition at 3.7 µM: CAPAN-1, Conc. 3.70 uM; for inhibition at 11.11 µM: CAPAN-1, Conc. 11.11 uM; for inhibition at 33.33 µM: CAPAN-1, Conc. 33.33 uM; for inhibition at 100 µM: CAPAN-1, Conc. 100.00 uM
Outline: as §2

## NC(=O)c1cccc2[nH]c(C3CCN(CCNC(=O)c4ccccc4)C3)nc12 (stereo not drawn) [Compound 5co, 2-(1-(2-Benzamidoethyl)pyrrolidin-3-yl)-1H-benzo[d]imidazole-4-carboxamide]
[1]; 10 nM compound, supplement sheet, read-out: 10 nM inhibition% PAPR-1
  inhibition at 0.01 µM: 38.4%
[1]; 10 nM compound, read-out: PARP-1 Inhibition % (10 nM)
  inhibition at 0.01 µM: 38.4%
[1]; read-out: PARP-1 IC50
  pIC50: 7.95
[2]; 10 nM compound, supplement sheet, read-out: 10 nM inhibition% PAPR-2
  inhibition at 0.01 µM: 66.2%
[2]; 10 nM compound, read-out: PARP-2 Inhibition % (10 nM)
  inhibition at 0.01 µM: 66.2%
[2]; read-out: PARP-2 IC50
  pIC50: 8.24
[2]; supplement sheet, read-out: IC50 PAPR-2
  pIC50: 8.25
[3]; replicate 1, read-out: Inh % 1
  inhibition at 0.00508 µM: 0.116%
  inhibition at 0.0152 µM: 3.3%
  inhibition at 0.0457 µM: -7.2%
  inhibition at 0.41 µM: -3.1%
  inhibition at 1.23 µM: 5.2%
  inhibition at 3.7 µM: -2%
  inhibition at 11.11 µM: 2.4%
  inhibition at 33.33 µM: 15.5%
  inhibition at 100 µM: 25.7%
[3]; replicate 2, read-out: Inh % 2
  inhibition at 0.00508 µM: -6.8%
  inhibition at 0.0152 µM: -2.8%
  inhibition at 0.0457 µM: -12.8%
  inhibition at 0.41 µM: -1.7%
  inhibition at 1.23 µM: -9.2%
  inhibition at 3.7 µM: -0.8%
  inhibition at 11.11 µM: -2.7%
  inhibition at 33.33 µM: 10.6%
  inhibition at 100 µM: 18.3%
[3]
  pIC50: < 4.00
[4]; 72 h, CellTiter-Glo
  pIC50: < 4.00
[4]; replicate 1, read-out: Inh % 1
  inhibition at 0.00508 µM: -4.9%
  inhibition at 0.0152 µM: 7.4%
  inhibition at 0.0457 µM: 10.8%
  inhibition at […]: 5.7%
  inhibition at 0.41 µM: 7.1%
  inhibition at 1.23 µM: 9.2%
  inhibition at 3.7 µM: 25%
  inhibition at 11.11 µM: 17.9%
  inhibition at 33.33 µM: 16%
  inhibition at 100 µM: 29.2%
[4]; replicate 2, read-out: Inh % 2
  inhibition at 0.00508 µM: -7.9%
  inhibition at 0.0152 µM: -1.7%
  inhibition at 0.0457 µM: 10.6%
  inhibition at […]: 0.8%
  inhibition at 0.41 µM: 6.9%
  inhibition at 1.23 µM: 5%
  inhibition at 3.7 µM: 11.1%
  inhibition at 11.11 µM: -1.4%
  inhibition at 33.33 µM: 13.7%
  inhibition at 100 µM: 25.9%

## C[C@]1(c2nc3c(C(N)=O)cccc3[nH]2)CCCN1 [pc1, Veliparib, reference compound]
[1]; read-out: 10 nM inhibition% PAPR-1
  inhibition at 0.01 µM: 54.3%
[1]; read-out: PARP-1 Inhibition % (10 nM)
  inhibition at 0.01 µM: 63.7%
[2]; read-out: 10 nM inhibition% PAPR-2
  inhibition at 0.01 µM: 78.3%
[2]; read-out: PARP-2 Inhibition % (10 nM)
  inhibition at 0.01 µM: 78.3%
[3]; replicate 1, read-out: Inh % 1
  inhibition at 0.00508 µM: 0.064%
  inhibition at 0.0152 µM: -2.6%
  inhibition at 0.0457 µM: -7.5%
  inhibition at 0.41 µM: -3.2%
  inhibition at 1.23 µM: -5.4%
  inhibition at 3.7 µM: -2.1%
  inhibition at 11.11 µM: 3.2%
  inhibition at 33.33 µM: 11.6%
  inhibition at 100 µM: 34.3%
[3]; replicate 2, read-out: Inh % 2
  inhibition at 0.00508 µM: -7.5%
  inhibition at 0.0152 µM: -6.6%
  inhibition at 0.0457 µM: -6.4%
  inhibition at 0.41 µM: -9.9%
  inhibition at 1.23 µM: -2.1%
  inhibition at 3.7 µM: 2.6%
  inhibition at 11.11 µM: 2.2%
  inhibition at 33.33 µM: 7.4%
  inhibition at 100 µM: 20.3%
[3]
  pIC50: < 4.00
[4]; 72 h, CellTiter-Glo
  CAPAN-1 IC50 (μM): low potency
  pIC50: < 4.00
[4]; CAPAN-1, curve-fit output, concentration axis Log (uM)
  LogIC50: 2.067
[4]; replicate 1, read-out: Inh % 1
  inhibition at 0.00508 µM: -10.6%
  inhibition at 0.0152 µM: -2.1%
  inhibition at 0.0457 µM: -0.346%
  inhibition at […]: 9.5%
  inhibition at 0.41 µM: 7.8%
  inhibition at 1.23 µM: -10.7%
  inhibition at 3.7 µM: -17.8%
  inhibition at 11.11 µM: 5%
  inhibition at 33.33 µM: 12.5%
  inhibition at 100 µM: 43.2%
[4]; replicate 2, read-out: Inh % 2
  inhibition at 0.00508 µM: 3.8%
  inhibition at 0.0152 µM: -6.9%
  inhibition at 0.0457 µM: 3%
  inhibition at […]: 7.1%
  inhibition at 0.41 µM: -1.8%
  inhibition at 1.23 µM: -7.2%
  inhibition at 3.7 µM: -16.7%
  inhibition at 11.11 µM: 7.2%
  inhibition at 33.33 µM: 11.9%
  inhibition at 100 µM: 42.4%
